From patent US4223041A, “Urea derivatives to treat anxiety and aggressivity” (Labaz, priority 1976, dated 1980) come the findings set out here.

Some results are limits rather than exact numbers.

Series [1] is described as follows: "Electrically-provoked combat" test (anxiolytic action). The class given is in vivo, mouse. To be noted: for protection against anxiety: same experimental conditions. An excerpt:
Under certain conditions, a pair of mice reacts to an electric stimulus by a series of combats which are provoked by the anxiety felt by the animals as a result of the electric shock. This anxiety is expressed by a combat with the other animal which is rendered responsible. For this reason, the test described hereunder can be considered as a means of evaluating the anxiolytic action of a compound. Two mice which have been previously on a diet consisting only of water are placed together in a cage. They are then submitted to a series of electric impulses of an intensity varying between 40 and 80 volts according to the sensitivity of the animals. The test is first carried out with untreated animals as controls and then with the same animals treated 30 minutes before the test with a dose of the compound to be studied.
Note is taken on the number of combats engaged. The results are expressed in percentage of decrease in the number of combats engaged by the treated animals in comparison with the number of combats registered before treatment.

Series [2] in a line: rota rod test (neurotoxicity). Conditions: for % of failures in rota rod test: mice, 30 min after administration; for Rota rod (% of failures): comparison at 25%-protection dose of four plates test. The series is classed as in vivo, mouse. As to the method: The test used was that known as the rota rod test described by BOISSIER (Therapie 1958 XIII pp. 1074-1118).
This test aims at determining the ability of mice to coordinate their movements by seeing to what extent they can remain on a roller turning at a rate of 4 revolutions per minute for two minutes. The trial was carried out thirty minutes after administration by oral route of the compound to be studied and the percentage of failures was noted.
The value of this test is twofold. Failure on the part of the animals gives a very early indication of the slightest damage to the meuromuscular functions which cannot be discerned by any other means. Secondly, this test serves as an element of comparison for drawing up index figures involving the results obtained with other tests.
A general note: Falling from the rotarod earlier than controls is read as motor impairment.

A short description of series [3]: Action on the pentylenetetrazole-induced seizure (anticonvulsant activity). The series is classed as in vivo, mouse. As to the method: The purpose of this test which is carried out on mice is to determine whether the compounds of the invention, when given preventively by oral route, are capable at certain doses of protecting some of the animals against the epileptic seizure produced by a predetermined dose of pentylenetetrazole which would be 100% fatal in the absence of the compound.
The compound to be studied was administered fifteen minutes before an injection of 125 mg/kg of pentylenetetrazole and note was taken of the number of deaths occurring during the three hours following this injection. The results were expressed in percentage of protection of the animals against death at the dose studied.

Series [4] in a line: Four plates test (anxiolytic action). The class given is in vivo, mouse. Conditions: for ED25: po, read-out: ED25 in the four plates test (dose which offers 25%-protection against anxiety); for positive result in four plates test without sedative effect: at ED25 of four plates test. From the text: This test, which is specific to the anxiolytics, was undertaken with the mouse, thirty minutes after the oral administration of the compound to be studied.
It consists in placing mice in a box with fairly high walls, of which the bottom comprises four square plates. These plates, which all have the same dimensions, are separated from each other by a central axis and are alternately electrified by the positive and negative poles of a source of electric current. There is a space of a few millimeters between adjacent plates.
The mouse placed in this apparatus explores it and thus passes over the different plates in succession. Note is taken of the number of times each animal passes over the plates during one minute. When the current is switched on, the mouse passing over the plates receives an electric shock (80 V), which provokes a gradual decrease in the exploratory movements, and finally brings the animals to a complete stop.
Anxiolytic agents enable the animals to become more or less indifferent to the electric shock.
The percentage of protection against anxiety given by compounds of the invention was calculated by comparing the number of times the control animals passed over the plates when electrified with the number of times the treated animals passed over the electrified plates.

A short description of series [5]: spontaneous motoricity in the mouse. The class given is in vivo. Conditions: for Spontaneous motoricity (% of decrease): comparison at 25%-protection dose of four plates test. An excerpt:
This test is described in U.S. Pat. No. 3,929,869.

The nature of series [6]: Aggressivity of the isolated mouse (antiaggressive activity). The class given is in vivo. From the text: If a male mouse is isolated in a cage for three to four weeks, it will spontaneously attack any other animal of the same species which is placed in the same cage.
Mice wer isolated for the period of time required to render them spontaneously aggressive. Two mice, one rendered aggressive and one in a normal non-aggressive state, were then placed together and note was taken of the number of attacks by the aggressive mouse which occurred over a period of three minutes.
Each batch was composed of five pairs of animals.
The aggressive animals of each batch were then treated by oral route with the compound to be studied which was administered in such a way that the aggressive animals of each batch received a higher dose than those of the preceding batch.
Thirty minutes after administration, the couples were placed together again for a further three minutes and the number of attacks noted.

The mark [7] stands for this setting: Mus musculus, po, 3 h, read-out: % of protection against death.
Where [8] appears, read: Mus musculus, 0.5 h, mice, 30 min before test, read-out: % of decrease in number of combats.
[9] abbreviates: at the dose which provokes a 60%-decrease in the number of combats.

Take `CCC#CC(CCC)(CCC)NC(N)=O` [Compound B, 1-(1,1-Di-n-propyl-2-pentynyl)-urea]: the inhibition in vivo at 56.5 mg/kg in series [1] (Mus musculus, 0.5 h, 56.5 mg/kg, mice, 30 min before test, read-out: % of decrease in number of combats) was 52%.

Take `CC#CC(CCC)(CCC)NC(N)=O` [Compound D, 1-(1,1-Di-n-propyl-2-butynyl)-urea]: the “% of failures in rota rod test” value in series [2] (250 mg/kg oral) was found to be 50%. The inhibition in vivo at 74 mg/kg in series [1] (Mus musculus, 0.5 h, 74 mg/kg, mice, 30 min before test, read-out: % of decrease in number of combats) was found to be 50%. Further, the responders at 80.5 mg/kg in series [3] (setting [7]) is 50%. The “anticonvulsant activity (in words)” value in series [3] (pentylenetetrazole-induced seizure, mice, oral) was “considerable”.

For the molecule `CCC(CC)(CC)NC(N)=O` [Compound F, 1-(1,1-Diethyl-n-propyl)-urea], the inhibition in vivo at 82 mg/kg in series [1] (Mus musculus, 0.5 h, 82 mg/kg, mice, 30 min before test, read-out: % of decrease in number of combats) is 50%. Moreover, in series [4] (0.5 h, 175 mg/kg oral, mouse, 30 min after administration, read-out: % of protection against anxiety), the inhibition in vivo at 175 mg/kg is 16%. Besides, in series [3] (setting [7]), the responders at 150 mg/kg turned out to be 50%.

Turning to `CCCCC(C)(CC)NC(N)=O` (stereo not drawn) [Compound G, 1-(1-Methyl-1-ethyl-pentyl)-urea], the inhibition in vivo at 94 mg/kg in series [1] (Mus musculus, 0.5 h, 94 mg/kg, mice, 30 min before test, read-out: % of decrease in number of combats) was 48%. Besides, the inhibition in vivo at 282 mg/kg in series [4] (0.5 h, 282 mg/kg oral, mouse, 30 min after administration, read-out: % of protection against anxiety) amounted to 18%. Further, the responders at 188 mg/kg in series [3] (setting [7]) was 20%.

As to `CCCC(CCC)(NC(N)=O)C(C)C` [Compound H, 1-(1-n-Propyl-1-isopropyl-n-butyl)-urea], the inhibition in vivo at 110 mg/kg in series [1] (Mus musculus, 0.5 h, 110 mg/kg, mice, 30 min before test, read-out: % of decrease in number of combats) came out at 50%. The inhibition in vivo at 250 mg/kg in series [4] (0.5 h, 250 mg/kg oral, mouse, 30 min after administration, read-out: % of protection against anxiety) came to 39%.

Take `CCCC(CCC)(CCC)NC(=O)N(C)C` [Compound I, 1-(1,1-Di-n-propyl-n-butyl)-3,3-dimethyl-urea]: the inhibition in vivo at 200 mg/kg in series [1] (setting [8]) worked out at 55%. Besides, the inhibition in vivo at 350 mg/kg in series [4] (0.5 h, 350 mg/kg oral, mouse, 30 min after administration, read-out: % of protection against anxiety) is 29%.

For the molecule `CCCCC(CCCC)(CCCC)NC(N)=O` [Compound J, 1-(1,1-Di-n-butyl-n-pentyl)-urea], the “% of failures in rota rod test” value in series [2] (500 mg/kg oral) came out at 0%. For the same molecule, the inhibition in vivo at 200 mg/kg in series [1] (setting [8]) is 67%.

Consider `CCCC(CCC)(CCC)NC(=O)NC` [Compound K, 1-(1,1-Di-n-propyl-n-butyl)-3-methyl-urea], for which the “failures in the rota rod test” value in series [2] (300 mg/kg oral, mouse (ED25 in four plates test)) was “no failures”. Besides, the “% of failures in rota rod test” value in series [2] (600 mg/kg oral) is 0%. Further, in series [2] (at ED25 of four plates test), the “sedative effect relative to reference products” value was “much less sedative than diazepam and meprobamate”. In series [1] (setting [8]), the inhibition in vivo at 200 mg/kg is 42%. The inhibition in vivo at 300 mg/kg in series [4] (0.5 h, 300 mg/kg oral, mouse, 30 min after administration, read-out: % of protection against anxiety) turned out to be 25%. The ED25 in series [4] (0.5 h, mouse) stood at 300 mg/kg. In addition, the responders at 200 mg/kg in series [3] (Mus musculus, 3 h, 200 mg/kg oral, mice, 15 min before 125 mg/kg pentylenetetrazole, read-out: % of protection against death) turned out to be 30%.

On to `C=CCC(CCC)(CCC)NC(=O)NC` [Compound L, 1-(1,1-Di-n-propyl-3-butenyl)-3-methyl-urea], for which the inhibition in vivo at 228 mg/kg in series [1] (Mus musculus, 0.5 h, 228 mg/kg, mice, 30 min before test, read-out: % of decrease in number of combats) was 53%.

`C#CCNC(=O)NC(CCC)(CCC)CCC` [Compound M, 1-(1,1-Di-n-propyl-n-butyl)-3-(2-propynyl)-urea]: in series [2] (635 mg/kg oral), the “% of failures in rota rod test” value is reported as 0%. The inhibition in vivo at 254 mg/kg in series [1] (Mus musculus, 0.5 h, 254 mg/kg, mice, 30 min before test, read-out: % of decrease in number of combats) was determined as 56%.

As for `C=CCNC(=O)NC(CCC)(CCC)CCC` [Compound N, 1-(1,1-Di-n-propyl-n-butyl)-3-(2-propenyl)-urea], the “% of failures in rota rod test” value in series [2] (720 mg/kg oral) was determined as 0%. In series [1] (Mus musculus, 0.5 h, 360 mg/kg, mice, 30 min before test, read-out: % of decrease in number of combats), the inhibition in vivo at 360 mg/kg is 30%. In addition, the responders at 240 mg/kg in series [3] (Mus musculus, 3 h, 240 mg/kg oral, mice, 15 min before 125 mg/kg pentylenetetrazole, read-out: % of protection against death) was 20%.

As for `CCCC(CCC)(CC(C)C)NC(N)=O` [Compound P, 1-(1,1-Di-n-propyl-3-methyl-n-butyl)-urea], the “% of failures in rota rod test” value in series [2] (690 mg/kg oral) was determined as 0%. The inhibition in vivo at 460 mg/kg in series [1] (Mus musculus, 0.5 h, 460 mg/kg, mice, 30 min before test, read-out: % of decrease in number of combats) amounted to 31%.

For `CN1C(=O)CN=C(c2ccccc2)c2cc(Cl)ccc21` [diazepam, reference compound], the “failures in the rota rod test” value in series [2] (setting [9]) stood at 12%. In addition, the “Rota rod (% of failures)” value in series [2] (2 mg/kg) is 35%. The “Spontaneous motoricity (% of decrease)” value in series [5] (2 mg/kg) came to 57%. Besides, the “decrease in spontaneous motoricity at dose giving 80% reduction in combats” value in series [5] (dose producing 80% decrease in the number of combats) is given as 40%. For the same molecule, the protection against anxiety in series [1] (0.69 mg/kg) turned out to be 50%. Also, the “decrease in number of combats obtainable without altering spontaneous motoricity” value in series [1] (mice, without action on spontaneous motoricity) is recorded as at most 15%. The “positive result in four plates test without sedative effect” value in series [4] was “impossible”. Also, the ED25 in series [4] (0.5 h, mouse) is 2 mg/kg. The “ED50 in the four plates test” value in series [4] (sedative effects too intense above 2 mg/kg) is given as “not possible to obtain a ED50”. Besides, in series [6] (8 mg/kg), the sedative effects entry is listed as “strongly sedative”. The “reduction in the number of attacks” value in series [6] (8 mg/kg (strongly sedative), isolated mouse) came to 38%. In addition, the “activity in the isolated mouse test” value in series [6] (doses active in four plates and electrically-provoked combat tests) was “devoid of activity”. The antiaggressive effect entry in series [6] (up to 4 mg/kg, isolated mouse) was “no results”.

For orientation: ED50 means the dose that gives a 50% effect, or the effect in half of the subjects. As for `CCCC(C)(COC(N)=O)COC(N)=O` [meprobamate, reference compound], the “rota rod test effect” value in series [2] (170 mg/kg (ED50 in isolated mouse test)) is reported as 75%. In addition, the “failures in the rota rod test” value in series [2] (setting [9]) amounted to 35%. The “Rota rod (% of failures)” value in series [2] (79 mg/kg) is 30%. The “Spontaneous motoricity (% of decrease)” value in series [5] (79 mg/kg) is given as 11%. The same molecule came in with a protection against anxiety in series [1] (70 mg/kg) of 50%. Further, in series [4], the “positive result in four plates test without sedative effect” value is listed as “impossible”. In addition, the ED25 in series [4] (0.5 h, mouse) turned out to be 79 mg/kg. In addition, the “sedative effects at antiaggressive dose” value in series [6] (170 mg/kg) is given as “considerable”. In addition, the ED50 in series [6] (0.5 h, oral, isolated mouse, 30 min after administration, read-out: ED50 (50% fewer attacks)) was determined as 170 mg/kg.
